Measurements reported in PubChem BioAssay AID330 (DTP/NCI, 2004).
Where “and” joins values, the source holds several entries; their conditions need not be identical. Equal entries are not always repeated. Inconclusive results and toxic doses are left out. Rule for the calls: active = survival T/C of 150% or more; inactive = T/C below 125% in these data.

System: P388 leukemia ip, CD2F1 mice, survival T/C
Experiment: NCI In Vivo Anticancer Drug Screen. Data for tumor model P388 Leukemia (intraperitoneal) in CD2F1 (CDF1) mice
Details: endpoint: median survival time, higher = longer survival
Procedure, shortened: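 Mice carrying the transplanted tumor received test compound or vehicle. Survival was recorded in each group, and the value is the treated-group measurement divided by that of the vehicle-treated control group.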

[1] = dose: 50.0 mg/kg/injection, schedule: Q01DX005 (ip), vehicle: saline with Tween-80
[2] = dose: 100.0 mg/kg/injection, schedule: Q01DX005 (ip), vehicle: saline with Tween-80
[3] = dose: 200.0 mg/kg/injection, schedule: Q01DX005 (ip), vehicle: saline with Tween-80
[4] = dose: 60.0 mg/kg/injection, schedule: Q01DX005 (ip), vehicle: saline with Tween-80
[5] = dose: 120.0 mg/kg/injection, schedule: Q01DX005 (ip), vehicle: saline with Tween-80
[6] = dose: 50.0 mg/kg/injection, schedule: Q01DX009 (ip), vehicle: saline with Tween-80
[7] = dose: 100.0 mg/kg/injection, schedule: Q01DX009 (ip), vehicle: saline with Tween-80
[8] = dose: 50.0 mg/kg/injection, schedule: Q01DX009 (ip), vehicle: saline
[9] = dose: 100.0 mg/kg/injection, schedule: Q01DX009 (ip), vehicle: saline
[10] = dose: 200.0 mg/kg/injection, schedule: Q01DX009 (ip), vehicle: saline
[11] = dose: 25.0 mg/kg/injection, schedule: Q01DX005 (ip), vehicle: Klucel (hydroxypropylcellulose) (HPC)
[12] = dose: 50.0 mg/kg/injection, schedule: Q01DX005 (ip), vehicle: Klucel (hydroxypropylcellulose) (HPC)
[13] = dose: 100.0 mg/kg/injection, schedule: Q01DX005 (ip), vehicle: Klucel (hydroxypropylcellulose) (HPC)
[14] = dose: 25.0 mg/kg/injection, schedule: Q01DX009 (ip), vehicle: saline with Tween-80
[15] = dose: 12.5 mg/kg/injection, schedule: Q01DX009 (ip), vehicle: saline with Tween-80
[16] = dose: 50.0 mg/kg/injection, schedule: Q01DX009 (ip), vehicle: Klucel (hydroxypropylcellulose) (HPC)
[17] = dose: 200.0 mg/kg/injection, schedule: Q01DX009 (ip), vehicle: Klucel (hydroxypropylcellulose) (HPC)

Measured: T/C

O=C(NC1CCCCC1C1CCC(Cl)CC1)c1ccccc1 (stereo unspecified)
inactive: [1] 89 % of control | [2] 87 % of control | [3] 87 % of control

Cc1ccc(-n2c(=S)n(-c3ccccc3C)c3nc4ccccc4nc2/c3=N\Nc2ccccc2)cc1
inactive: [4] 100 % of control | [5] 93 % of control

COC1CCC(Sc2cccc[n+]2CC(C)=O)CC1OC (stereo unspecified)
inactive: dose: 12.5 mg/kg/injection, schedule: Q01DX005 (ip), vehicle: saline with Tween-80 100 % of control | dose: 25.0 mg/kg/injection, schedule: Q01DX005 (ip), vehicle: saline with Tween-80 99 % of control | [1] 98 % of control and 101 % of control | [2] 102 % of control

CCC[CH2][Sn][Cl]
inactive: [6] 104 % of control | [7] 114 % of control | dose: 200.0 mg/kg/injection, schedule: Q01DX009 (ip), vehicle: saline with Tween-80 117 % of control

OCC1OC2OC3C(CO)OC(OC4C(CO)OC(OC5C(CO)OC(OC6C(CO)OC(OC7C(CO)OC(OC1C(O)C2O)C(O)C7O)C(O)C6O)C(O)C5O)C(O)C4O)C(O)C3O (stereo unspecified)
inactive: [8] 94 % of control | [9] 89 % of control | [10] 96 % of control

CC(=O)Nc1ccc(S(=O)(=O)n2c(=O)oc3cc(Br)ccc32)cc1
inactive: [11] 94 % of control | [12] 87 % of control and 90 % of control | [13] 87 % of control and 90 % of control

O=C(O)c1cnc2cc(Cl)ccc2n1
inactive: [14] 100 % of control | [6] 100 % of control | [7] 95 % of control

O=C1OC(C2OC(=O)C(=O)C2C(=O)c2ccc([N+](=O)[O-])cc2)C(C(=O)c2ccc([N+](=O)[O-])cc2)C1=O (stereo unspecified)
inactive: [4] 98 % of control | [5] 94 % of control

COC(=O)C1c2ccc(OC)c(OC)c2C(=O)N2CCc3cc4c(cc3C12)OCO4 (stereo unspecified)
inactive: dose: 50.0 mg/kg/injection, schedule: Q04DX003 (ip), vehicle: distilled water + Tween-80 95 % of control | dose: 100.0 mg/kg/injection, schedule: Q04DX003 (ip), vehicle: distilled water + Tween-80 101 % of control | dose: 200.0 mg/kg/injection, schedule: Q04DX003 (ip), vehicle: distilled water + Tween-80 95 % of control | dose: 400.0 mg/kg/injection, schedule: Q04DX003 (ip), vehicle: distilled water + Tween-80 104 % of control

CCC1C2Cc3ccc(O)cc3C1(C)CCN2 (stereo unspecified)
inactive: dose: 60.0 mg/kg/injection, schedule: Q01DX005 (ip), vehicle: saline 95 % of control | dose: 120.0 mg/kg/injection, schedule: Q01DX005 (ip), vehicle: saline 98 % of control

COc1ccc([N+](=O)[O-])c(/C=C/C(=O)c2ccccn2)c1
inactive: dose: 12.5 mg/kg/injection, schedule: Q01DX009 (ip), vehicle: distilled water + Tween-80 98 % of control | dose: 25.0 mg/kg/injection, schedule: Q01DX009 (ip), vehicle: distilled water + Tween-80 100 % of control | dose: 50.0 mg/kg/injection, schedule: Q01DX009 (ip), vehicle: distilled water + Tween-80 97 % of control | dose: 100.0 mg/kg/injection, schedule: Q01DX009 (ip), vehicle: distilled water + Tween-80 98 % of control | dose: 200.0 mg/kg/injection, schedule: Q01DX009 (ip), vehicle: distilled water + Tween-80 104 % of control

CC(C)(C)N=C(CCN1CCN(CCC(=NC(C)(C)C)Nc2ccc([N+](=O)[O-])cc2)CC1)Nc1ccc([N+](=O)[O-])cc1
inactive: [15] 92 % of control | [14] 96 % of control | [16] 87 % of control | [6] 91 % of control | [17] 93 % of control

CC1Cc2c([nH]c3ccc(Cl)cc23)CN1 (stereo unspecified)
inactive: dose: 3.12 mg/kg/injection, schedule: Q01DX009 (ip), vehicle: saline with Tween-80 106 % of control | dose: 6.25 mg/kg/injection, schedule: Q01DX009 (ip), vehicle: saline with Tween-80 100 % of control | [15] 101 % of control | [14] 101 % of control

c1ccc(-c2nc(N3CCN(c4ccco4)CC3)c3c4c(sc3n2)CCC4)cc1
inactive: dose: 12.5 mg/kg/injection, schedule: Q01DX005 (ip), vehicle: Klucel (hydroxypropylcellulose) (HPC) 97 % of control | [11] 90 % of control | [12] 90 % of control and 91 % of control

CCCC1(CCC)c2ccccc2C(Cl)(CCl)c2ccccc21
inactive: dose: 12.5 mg/kg/injection, schedule: Q01DX009 (ip), vehicle: other 103 % of control | dose: 25.0 mg/kg/injection, schedule: Q01DX009 (ip), vehicle: other 106 % of control | dose: 50.0 mg/kg/injection, schedule: Q01DX009 (ip), vehicle: other 109 % of control | dose: 100.0 mg/kg/injection, schedule: Q01DX009 (ip), vehicle: other 107 % of control | dose: 200.0 mg/kg/injection, schedule: Q01DX009 (ip), vehicle: other 109 % of control

COc1ccc(CSC(=S)Nc2cccc(S(F)(F)(F)(F)F)c2)cc1
inactive: [15] 97 % of control | dose: 12.5 mg/kg/injection, schedule: Q01DX009 (ip), vehicle: saline 104 % of control | [14] 100 % of control | dose: 25.0 mg/kg/injection, schedule: Q01DX009 (ip), vehicle: saline 98 % of control | [6] 100 % of control | [8] 100 % of control and 119 % of control | [9] 116 % of control | [10] 118 % of control

CC(=O)c1cc(-c2ccccn2)c(=O)n2ccccc12
inactive: [15] 105 % of control | [14] 99 % of control | [6] 100 % of control and 87 % of control

CC(=O)OC(NC(=O)c1cc(C)cc(C)c1)c1ccncc1 (stereo unspecified)
inactive: [12] 97 % of control | [13] 86 % of control

CCCCCCCCCCCC#CC(=O)OC
inactive: [8] 105 % of control | [9] 103 % of control | [10] 103 % of control

O=C(O)CCCC(=O)NC1CC2c3ccccc3C1c1ccccc12 (stereo unspecified)
inactive: dose: 75.0 mg/kg/injection, schedule: Q01DX009 (ip), vehicle: saline with Tween-80 100 % of control | dose: 100.0 mg/kg/injection, schedule: Q04DX003 (ip), vehicle: saline sonified 100 % of control | dose: 150.0 mg/kg/injection, schedule: Q01DX009 (ip), vehicle: saline with Tween-80 100 % of control | dose: 200.0 mg/kg/injection, schedule: Q04DX003 (ip), vehicle: saline sonified 105 % of control | dose: 400.0 mg/kg/injection, schedule: Q04DX003 (ip), vehicle: saline sonified 100 % of control

NC(=S)N=Nc1c(O)n(CCCO)c2ccccc12
inactive: dose: 60.0 mg/kg/injection, schedule: Q01DX005 (ip), vehicle: Klucel (hydroxypropylcellulose) (HPC) 93 % of control | dose: 120.0 mg/kg/injection, schedule: Q01DX005 (ip), vehicle: Klucel (hydroxypropylcellulose) (HPC) 100 % of control

Cn1c(=O)c2c(ncn2Cc2ccc(O)c([N+](=O)[O-])c2)n(C)c1=O
inactive: [11] 91 % of control | [13] 94 % of control | dose: 200.0 mg/kg/injection, schedule: Q01DX005 (ip), vehicle: Klucel (hydroxypropylcellulose) (HPC) 92 % of control

FC(F)(F)c1cc(NC(=S)SCc2ccc3c(c2)OCO3)ccc1Cl
inactive: dose: 50.0 mg/kg/injection, schedule: Q01DX009 (ip), vehicle: suspension in saline 100 % of control | dose: 100.0 mg/kg/injection, schedule: Q01DX009 (ip), vehicle: suspension in saline 100 % of control | dose: 200.0 mg/kg/injection, schedule: Q01DX009 (ip), vehicle: suspension in saline 100 % of control

Cc1ccc(NC(=S)NCC2CCCO2)cc1C (stereo unspecified)
inactive: [16] 102 % of control and 98 % of control | dose: 100.0 mg/kg/injection, schedule: Q01DX009 (ip), vehicle: Klucel (hydroxypropylcellulose) (HPC) 91 % of control | [17] 92 % of control and 93 % of control and 97 % of control

CC(C)(C)c1cc(CO)c(Sc2c(CO)cc(C(C)(C)C)cc2CO)c(CO)c1
inactive: dose: 12.5 mg/kg/injection, schedule: Q01DX001 (ip), vehicle: saline with Tween-80 92 % of control | dose: 25.0 mg/kg/injection, schedule: Q01DX001 (ip), vehicle: saline with Tween-80 100 % of control | dose: 50.0 mg/kg/injection, schedule: Q01DX001 (ip), vehicle: saline with Tween-80 95 % of control

COc1ccc2[nH]c3c(c2c1)-c1ncncc1CC3
inactive: [1] 100 % of control | [2] 97 % of control | [3] 106 % of control

CN1CCN(C)B1N=S(C)(C)=O
inactive: dose: 50.0 mg/kg/injection, schedule: Q01DX005 (ip), vehicle: olive oil, sesame oil, peanut oil 111 % of control | dose: 100.0 mg/kg/injection, schedule: Q01DX005 (ip), vehicle: olive oil, sesame oil, peanut oil 114 % of control
